# Experimental data published in patent US7384758B2, “Bioluminescent protease assay with modified aminoluciferin or derivatives thereof” (Promeaga Corporation, priority 2002, dated 2008).
# Tests used:
# [1] = test system: thermostable firefly luciferase; assay: luminescent reaction with luciferin or aminoluciferin as luciferase substrate (FIG. 1); type: biochemical
# Text: FIG. 1 depicts relative light units (RLU) for luciferin or aminoluciferin as a substrate for a thermostable firefly luciferase in a luminescent reaction.
# caspase 3 = target: T1, caspase 3 (Homo sapiens, UniProt P42574); assay: caspase titration in CHAPS or Thesit buffer formulations (Example 5); type: biochemical; details: buffer containing either CHAPS or Thesit, FIG. 12
# T1 construct: approximately 10 mU/ng protein with >75% in active conformation; purchased Upstate Biotech 14-264
# T1 sequence (P42574 29-175 limits assumed): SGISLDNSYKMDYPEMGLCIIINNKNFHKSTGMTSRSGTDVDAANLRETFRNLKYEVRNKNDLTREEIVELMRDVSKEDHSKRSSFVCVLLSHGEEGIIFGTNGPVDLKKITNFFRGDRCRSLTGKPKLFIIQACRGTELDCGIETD
# T1 sequence (P42574 176-277 limits assumed): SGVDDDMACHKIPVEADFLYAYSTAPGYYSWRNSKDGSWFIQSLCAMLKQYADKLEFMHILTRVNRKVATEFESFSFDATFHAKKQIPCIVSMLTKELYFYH
# Experimental: To evaluate different assay component formulations for caspase-3 activity and to compare sensitivities of DEVD-aminoluciferin to DEVD-Rho-110 in those formulations, two stock solutions were prepared. As above, the DEVD-aminoluciferin/luciferase mixture is prepared and allowed to incubate overnight. One stock solution included a 1% solution of CHAPS buffer (Sigma, Catalog No. C-5070) and the other a 1% solution of Thesit (Pragmatics, Inc., Catalog No. S-22#9). The buffer formulations were as follows: 100 μl of HEPES (1 M stock, 50 mM final concentration), 10 μl of CaCl2 (1 M stock, 5 mM final concentration), 30 μl of MgSO4 (1 M stock, 15 mM final concentration), 8 μl of ATP (0.1 M stock, 400 μM final concentration), 8 μl of DEVD-aminoluciferin (10 mM stock, 40 μM final concentration), 38.4 μl of luciferase (5.2 mg/ml stock, 100 μg/ml final concentration) and 20 μl of prionex (10% stock, 0.1% final concentration) were combined in each of 2 tubes. Finally, 200 μl of either CHAPS or Thesit (1% stock, 0.1% final concentration) was added to one of the tubes. This was incubated overnight. […]
# To one plate, 50 μl of DEVD-aminoluciferin/luciferase was added to each of the 6 wells containing each dilution (both CHAPS and Thesit treated). […] The plates were read at various times on a luminometer (Dynex) or a fluorimeter (Fluoroskan).
compound,measurement,setting,value
Nc1ccc2nc(C3=N[C@@H](C(=O)O)CS3)sc2c1 [aminoluciferin],Km,"[1]; substrate for thermostable firefly luciferase, FIG. 1",2 µM
same,light output as luciferin,"[1]; under saturating conditions, relative to luciferin",about 60%
same,limit of detection (caspase),caspase 3,~0.2 μU
